Experimental data taken from patent US9814796B2, “Methods for sterilization and/or disinfection” (P[…] OF NEVADA, LLC, priority 2015, dated 2017).

Test system: Bacillus atrophaeus ATCC 9372 spores
Assay: Spore inactivation by 3.25 wt. % performic acid at various times and temperatures
Assay type: cell-based
Conditions: for Colony Forming Units (CFU) / Log Reduction: 3.25 wt. % performic acid
Text: An aqueous solution containing x weight percent of performic acid may be prepared by (1) diluting a commercially available aqueous solution of hydrogen peroxide (e.g., a 30 weight percent aqueous solution or a 50 weight percent aqueous solution) down to a concentration of 2x; (2) diluting a commercially available aqueous solution of formic acid (e.g., a 95 weight percent aqueous solution) down to a concentration of 2x; and (3) combining the diluted solution of hydrogen peroxide and the diluted solution of formic acid in a 1:1 volume, thereby providing performic acid in a concentration of x.
The procedure for performing spore inactivation tests in solution is as follows: Bacillus atrophaeus ATCC 9372 spores in saline were equilibrated in a water bath at the preselected test temperature, as was a formic acid/hydrogen peroxide mixture. At an initial time (T0), a volume of the formic acid/peroxide mixture was added to the spore preparation, such that the pre-chosen test concentration of the sterilization agent was achieved. At preselected times after the addition of the sterilization agent to the spore preparation, aliquots of the spore-treated mixture were transferred into a solution containing an excess of catalase (MP Biomedical) in order to quench the peroxide reaction. This solution was then serially ten-fold diluted and spread-plated onto tryptic soy agar plates that were subsequently incubated at 35° C. for 48 hours and enumerated.
An aqueous solution containing 3.25 wt. % of performic acid was prepared by (1) diluting a 50 wt. % aqueous solution of hydrogen peroxide down to a concentration of 6.5 wt. %; (2) diluting a 95 wt. % aqueous solution of formic acid down to a concentration of 6.5 wt. %; and (3) combining the 6.5 wt. % solution of hydrogen peroxide and the 6.5 wt. % solution of formic acid in a 1:1 volume.

performic acid
Colony Forming Units (CFU) (10° C., 5 seconds): 0 CFU | Log Reduction (10° C., 5 seconds): >7.8 | Colony Forming Units (CFU) (10° C., 10 seconds): 0 CFU | Log Reduction (10° C., 10 seconds): >7.8 | Colony Forming Units (CFU) (10° C., 15 seconds): 0 CFU | Log Reduction (10° C., 15 seconds): >7.8 | Colony Forming Units (CFU) (20° C., 5 seconds): 0 CFU | Log Reduction (20° C., 5 seconds): >8 | Colony Forming Units (CFU) (20° C., 10 seconds): 0 CFU | Log Reduction (20° C., 10 seconds): >8 | Colony Forming Units (CFU) (20° C., 15 seconds): 0 CFU | Log Reduction (20° C., 15 seconds): >8 | effectiveness in killing spores (in words) (room temperature and below (e.g., 5° C. or 10° C.), exposure times as little as 5 seconds): surprisingly and unexpectedly effective
